Laboratory results reported in paper PMC9293752, “Cholenic acid derivative UniPR1331 impairs tumor angiogenesis via blockade of VEGF/VEGFR2 in addition to Eph/ephrin” (Cancer Gene Therapy, 2021).

Target: T1, VEGFR2 (Homo sapiens, UniProt P35968)
T1 construct: gene KDR; monomeric recombinant form of the extracellular portion of VEGFR2 fused to Fc
Experiment: SPR (BIAcore X100), steady-state Scatchard analysis; supported by VEGF/VEGFR2 ELISA displacement (IC50 […])
Assay type: binding

T1 sequence (P35968 20-764 limits assumed): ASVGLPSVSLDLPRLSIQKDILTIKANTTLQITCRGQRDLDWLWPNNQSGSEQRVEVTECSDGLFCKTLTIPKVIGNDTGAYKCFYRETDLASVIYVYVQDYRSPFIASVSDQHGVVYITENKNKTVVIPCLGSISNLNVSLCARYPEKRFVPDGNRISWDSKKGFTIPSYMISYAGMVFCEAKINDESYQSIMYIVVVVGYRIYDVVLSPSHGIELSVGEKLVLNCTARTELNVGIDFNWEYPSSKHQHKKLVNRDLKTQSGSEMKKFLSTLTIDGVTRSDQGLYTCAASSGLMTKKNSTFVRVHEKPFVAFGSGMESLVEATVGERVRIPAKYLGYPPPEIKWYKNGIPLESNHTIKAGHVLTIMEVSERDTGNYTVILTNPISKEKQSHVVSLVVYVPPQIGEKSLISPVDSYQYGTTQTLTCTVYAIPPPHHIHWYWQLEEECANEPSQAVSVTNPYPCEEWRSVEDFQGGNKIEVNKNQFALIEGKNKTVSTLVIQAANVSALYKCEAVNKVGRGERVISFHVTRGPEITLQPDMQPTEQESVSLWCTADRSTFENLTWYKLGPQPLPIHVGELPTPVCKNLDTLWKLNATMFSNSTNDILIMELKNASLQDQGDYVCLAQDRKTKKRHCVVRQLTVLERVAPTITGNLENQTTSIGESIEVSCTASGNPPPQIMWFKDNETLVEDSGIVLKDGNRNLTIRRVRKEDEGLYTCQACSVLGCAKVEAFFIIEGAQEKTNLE

For `C[C@H](CCC(=O)N[C@@H](Cc1c[nH]c2ccccc12)C(=O)O)[C@H]1CC[C@H]2[C@@H]3CC=C4C[C@@H](O)CC[C@]4(C)[C@H]3CC[C@]12C` [UniPR1331], the Kd was 62.2 ± 2.1 µM.
